Test results published in patent US12595266B2, “Pesticidally active heterocyclic derivatives with sulfur containing substituents” (SYNGENTA CROP PROTECTION AG, priority 2020, dated 2026).

Legend:
Type in all cases: in vivo
[1] = tested on: Diabrotica balteata (Corn Root Worm); test: Activity against Diabrotica balteata (corn root worm); conditions: 96 h, application rate of 200 ppm, maize sprouts sprayed, L2 larvae, 4 days after infestation, read-out: effect in at least one of the two categories (mortality or growth inhibition)
Description: Example B3: Activity Against Diabrotica balteata (Corn Root Worm)
Maize sprouts placed onto an agar layer in 24-well microtiter plates were treated with aqueous test solutions prepared from 10′000 ppm DMSO stock solutions by spraying. After drying, the plates were infested with L2 larvae (6 to 10 per well). The samples were assessed for mortality and growth inhibition in comparison to untreated samples 4 days after infestation.

[2] = tested on: Chilo suppressalis (Striped Rice Stemborer); test: Activity against Chilo suppressalis (striped rice stemborer); conditions: 144 h, application rate of 200 ppm, artificial diet, L2 larvae, 6 days after infestation, read-out: control (at least one of mortality, anti-feedant effect, growth inhibition)
Description: Example B2: Activity Against Chilo suppressalis (Striped Rice Stemborer)
24-well microtiter plates with artificial diet were treated with aqueous test solutions prepared from 10′000 ppm DMSO stock solutions by pipetting. After drying, the plates were infested with L2 larvae (6-8 per well). The samples were assessed for mortality, anti-feeding effect, and growth inhibition in comparison to untreated samples 6 days after infestation. Control of Chilo suppressalis by a test sample is given when at least one of the categories mortality, anti-feedant effect, and growth inhibition is higher than the untreated sample.

[3] = tested on: Spodoptera littoralis (Egyptian Cotton Leaf Worm); test: Activity against Spodoptera littoralis (Egyptian cotton leaf worm); conditions: foliar, 72 h, application rate of 200 ppm, cotton leaf discs sprayed, L1 larvae, 3 days after infestation, read-out: control (at least one of mortality, anti-feedant effect, growth inhibition)
Description: Example B8: Activity Against Spodoptera littoralis (Egyptian Cotton Leaf Worm)
Cotton leaf discs were placed onto agar in 24-well microtiter plates and sprayed with aqueous test solutions prepared from 10′000 ppm DMSO stock solutions. After drying the leaf discs were infested with five L1 larvae. The samples were assessed for mortality, anti-feeding effect, and growth inhibition in comparison to untreated samples 3 days after infestation. Control of Spodoptera littoralis by a test sample is given when at least one of the categories mortality, anti-feedant effect, and growth inhibition is higher than the untreated sample.

[4] = tested on: Plutella xylostella (Diamond Back Moth); test: Activity against Plutella xylostella (diamond back moth); conditions: 192 h, application rate of 200 ppm, artificial diet, Plutella eggs, 8 days after infestation, read-out: effect in at least one of the two categories (mortality or growth inhibition)
Description: Example B7: Activity Against Plutella xylostella (Diamond Back Moth)
24-well microtiter plates with artificial diet were treated with aqueous test solutions prepared from 10′000 ppm DMSO stock solutions by pipetting. After drying, Plutella eggs were pipetted through a plastic stencil onto a gel blotting paper and the plate was closed with it. The samples were assessed for mortality and growth inhibition in comparison to untreated samples 8 days after infestation.

[5] = tested on: Myzus persicae (Green Peach Aphid); test: Activity against Myzus persicae (green peach aphid), systemic activity; conditions: 144 h, test rate of 24 ppm, roots of infested pea seedlings in test solution (systemic), 6 days
Description: Example B9: Activity Against Myzus persicae (Green Peach Aphid) Systemic Activity
Roots of pea seedlings infested with an aphid population of mixed ages were placed directly into aqueous test solutions prepared from 10′000 DMSO stock solutions. The samples were assessed for mortality 6 days after placing seedlings into test solutions.

[6] = tested on: Euschistus heros (Neotropical Brown Stink Bug); test: Activity against Euschistus heros (neotropical brown stink bug); conditions: 120 h, application rate of 200 ppm, soybean leaves sprayed, N2 nymphs, 5 days after infestation, read-out: effect in at least one of the two categories (mortality or growth inhibition)
Description: Example B4: Activity Against Euschistus heros (Neotropical Brown Stink Bug)
Soybean leaves on agar in 24-well microtiter plates were sprayed with aqueous test solutions prepared from 10′000 ppm DMSO stock solutions. After drying the leaves were infested with N2 nymphs. The samples were assessed for mortality and growth inhibition in comparison to untreated samples 5 days after infestation.

[7] = tested on: Myzus persicae (Green Peach Aphid); test: Activity against Myzus persicae (green peach aphid), feeding/contact activity; conditions: foliar, 144 h, application rate of 200 ppm, sunflower leaf discs sprayed, aphid population of mixed ages, 6 days after infestation
Description: Example B6: Activity Against Myzus persicae (Green Peach Aphid) Feeding/Contact Activity
Sunflower leaf discs were placed onto agar in a 24-well microtiter plate and sprayed with aqueous test solutions prepared from 10′000 ppm DMSO stock solutions. After drying, the leaf discs were infested with an aphid population of mixed ages. The samples were assessed for mortality 6 days after infestation.

[8] = tested on: Bemisia tabaci (Cotton White Fly); test: Activity against Bemisia tabaci (cotton white fly), feeding/contact activity; conditions: foliar, 144 h, application rate of 200 ppm, cotton leaf discs sprayed, adult white flies, 6 days after incubation
Description: Example B1: Activity Against Bemisia tabaci (Cotton White Fly) Feeding/Contact Activity
Cotton leaf discs were placed on agar in 24-well microtiter plates and sprayed with aqueous test solutions prepared from 10′000 ppm DMSO stock solutions. After drying the leaf discs were infested with adult white flies. The samples were checked for mortality 6 days after incubation.

[9] = tested on: Carpocapsa (Cydia) Pomonella (Codling Moth); test: Activity against Carpocapsa (Cydia) pomonella (codling moth), larvicide, feeding/contact; conditions: 336 h, application rate of 12.5 ppm, paraffin-coated diet cubes sprayed, L1 larvae, 14 days after infestation, 26-27° C.
Description: Example B10: Activity Against Carpocapsa (Cydia) Pomonella (Codling Moth) Larvicide, Feeding/Contact
Diet cubes coated with paraffin were sprayed with diluted test solutions in an application chamber. After drying off the treated cubes (10 replicates) were infested with 1 L1 larvae. Samples were incubated at 26-27° C. and checked 14 days after infestation for mortality and growth inhibition.

CCS(=O)(=O)c1ccc(-c2ncccn2)nc1N1Cc2cc3c(cc2C1=O)OC(F)(F)O3 [Compound P16, 6-(3-ethylsulfonyl-6-pyrimidin-2-yl-2-pyridyl)-2,2-difluoro-5H-[1,3]dioxolo[4,5-f]isoindol-7-one]
≥ 80%: percent effect (mortality or growth inhibition) at 200 ppm [1] | percent control (mortality, anti-feedant effect or growth inhibition) at 200 ppm [2] | percent control (mortality, anti-feedant effect or growth inhibition) at 200 ppm [3] | percent effect (mortality or growth inhibition) at 200 ppm [4] | mortality at 24 ppm [5] | percent effect (mortality or growth inhibition) at 200 ppm [6] | mortality at 200 ppm [7]

CCS(=O)(=O)c1c(N2Cc3cc4c(cc3C2=O)OC(F)(F)O4)nc(-c2cnn(CC3CC3)c2)n1C [Compound P9, 6-[2-[1-(cyclopropylmethyl)pyrazol-4-yl]-5-ethylsulfonyl-1-methyl-imidazol-4-yl]-2,2-difluoro-5H-[1,3]dioxolo[4,5-f]isoindol-7-one]
≥ 80%: percent effect (mortality or growth inhibition) at 200 ppm [1] | percent control (mortality, anti-feedant effect or growth inhibition) at 200 ppm [2] | percent control (mortality, anti-feedant effect or growth inhibition) at 200 ppm [3] | percent effect (mortality or growth inhibition) at 200 ppm [4] | mortality at 24 ppm [5] | percent effect (mortality or growth inhibition) at 200 ppm [6] | mortality at 200 ppm [7]

CCS(=O)(=O)c1c(N2Cc3cc4c(cc3C2=O)OC(F)(F)O4)nc(-c2ncccn2)n1C [Compound P15, 6-(5-ethylsulfonyl-1-methyl-2-pyrimidin-2-yl-imidazol-4-yl)-2,2-difluoro-5H-[1,3]dioxolo[4,5-f]isoindol-7-one]
≥ 80%: percent effect (mortality or growth inhibition) at 200 ppm [1] | percent control (mortality, anti-feedant effect or growth inhibition) at 200 ppm [2] | percent control (mortality, anti-feedant effect or growth inhibition) at 200 ppm [3] | percent effect (mortality or growth inhibition) at 200 ppm [4] | mortality at 24 ppm [5] | percent effect (mortality or growth inhibition) at 200 ppm [6] | mortality at 200 ppm [7]

CCS(=O)(=O)c1c(N2Cc3cc4c(cc3C2=O)OC(F)(F)O4)nc(-c2cnn(C(F)F)c2)n1C [Compound P20, 6-[2-[1-(difluoromethyl)pyrazol-4-yl]-5-ethylsulfonyl-1-methyl-imidazol-4-yl]-2,2-difluoro-5H-[1,3]dioxolo[4,5-f]isoindol-7-one]
≥ 80%: percent effect (mortality or growth inhibition) at 200 ppm [1] | percent control (mortality, anti-feedant effect or growth inhibition) at 200 ppm [2] | percent control (mortality, anti-feedant effect or growth inhibition) at 200 ppm [3] | percent effect (mortality or growth inhibition) at 200 ppm [4] | mortality at 200 ppm [8] | percent effect (mortality or growth inhibition) at 200 ppm [6]

CCS(=O)(=O)c1c(N2Cc3cc4c(cc3C2=O)OC(F)(F)O4)nc(C2CC2)n1C [Compound P24, 6-(2-cyclopropyl-5-ethylsulfonyl-1-methyl-imidazol-4-yl)-2,2-difluoro-5H-[1,3]dioxolo[4,5-f]isoindol-7-one]
≥ 80%: percent effect (mortality or growth inhibition) at 200 ppm [1] | percent control (mortality, anti-feedant effect or growth inhibition) at 200 ppm [2] | percent control (mortality, anti-feedant effect or growth inhibition) at 200 ppm [3] | percent effect (mortality or growth inhibition) at 200 ppm [4] | mortality at 24 ppm [5] | percent effect (mortality or growth inhibition) at 200 ppm [6] | mortality at 200 ppm [7]

CCS(=O)(=O)c1cc(C(C)(C)C#N)cnc1N1Cc2cc3c(cc2C1=O)OC(F)(F)O3 [Compound P22, 2-[6-(2,2-difluoro-7-oxo-5H-[1,3]dioxolo[4,5-f]isoindol-6-yl)-5-ethylsulfonyl-3-pyridyl]-2-methyl-propanenitrile]
≥ 80%: percent effect (mortality or growth inhibition) at 200 ppm [1] | percent control (mortality, anti-feedant effect or growth inhibition) at 200 ppm [2] | percent control (mortality, anti-feedant effect or growth inhibition) at 200 ppm [3] | percent effect (mortality or growth inhibition) at 200 ppm [4] | mortality at 12.5 ppm [9] | mortality at 200 ppm [8] | percent effect (mortality or growth inhibition) at 200 ppm [6]

CCS(=O)(=O)c1cc(C(C)(F)F)cnc1N1Cc2cc3c(cc2C1=O)OC(F)(F)O3 [Compound P23, 6-[5-(1,1-difluoroethyl)-3-ethylsulfonyl-2-pyridyl]-2,2-difluoro-5H-[1,3]dioxolo[4,5-f]isoindol-7-one]
≥ 80%: percent control (mortality, anti-feedant effect or growth inhibition) at 200 ppm [2] | percent control (mortality, anti-feedant effect or growth inhibition) at 200 ppm [3] | percent effect (mortality or growth inhibition) at 200 ppm [4] | mortality at 12.5 ppm [9] | mortality at 200 ppm [8]

CCS(=O)(=O)c1c(N2Cc3cc4c(cc3C2=O)OC(F)(F)O4)nc(-c2cnn(CC(F)F)c2)n1C [Compound P4, 6-[2-[1-(2,2-difluoroethyl)pyrazol-4-yl]-5-ethylsulfonyl-1-methyl-imidazol-4-yl]-2,2-difluoro-5H-[1,3]dioxolo[4,5-f]isoindol-7-one]
≥ 80%: percent effect (mortality or growth inhibition) at 200 ppm [1] | percent control (mortality, anti-feedant effect or growth inhibition) at 200 ppm [2] | percent effect (mortality or growth inhibition) at 200 ppm [4] | mortality at 24 ppm [5] | percent effect (mortality or growth inhibition) at 200 ppm [6] | mortality at 200 ppm [7]

CCS(=O)(=O)c1c(N2Cc3cc4c(cc3C2=O)OC(F)(F)O4)nc(-c2cnn(CC(F)(F)F)c2)n1C [Compound P14, 6-[5-ethylsulfonyl-1-methyl-2-[1-(2,2,2-trifluoroethyl)pyrazol-4-yl]imidazol-4-yl]-2,2-difluoro-5H-[1,3]dioxolo[4,5-f]isoindol-7-one]
≥ 80%: percent effect (mortality or growth inhibition) at 200 ppm [1] | percent control (mortality, anti-feedant effect or growth inhibition) at 200 ppm [2] | percent control (mortality, anti-feedant effect or growth inhibition) at 200 ppm [3] | percent effect (mortality or growth inhibition) at 200 ppm [4] | mortality at 24 ppm [5] | percent effect (mortality or growth inhibition) at 200 ppm [6] | mortality at 200 ppm [7]
